Format in all cases: cell-based
In series [1] the test system is Staphylococcus aureus. As to the kind of experiment: Antimicrobial activity assay (MIC80, OD600), S. aureus. To be noted: LB broth, 128-4 μg/mL, 37 °C, 24 h; for MIC80 against S. aureus: 96-well plate. As for the experimental part: (§1) Strains of S. aureus and S. cerevisiae were used for the antimicrobial activity assay, and compounds 1–7 were evaluated as described. We resuscitated the bacteria and centrifuge them at 8000 rpm for 5 min at 4 °C; we then washed the precipitate twice with PBS. We diluted it with Luria-Bertani (LB) broth medium to the concentration of 5 × 10^5 CFU/mL. Strains were grown to OD600 = 0.3 in LB broth medium and diluted 400-fold. Aliquots (200 μL) of the diluted suspensions were placed into 96-well microtiter plates with isolated compounds at concentrations of 128, 64, 32, 16, 8, and 4 μg/mL and cultured at 37 °C for 24 h. Furazolidone was the positive control and DMSO was used as the negative control. The OD600 values were used to test the antimicrobial rate for MIC80.

The test system of series [2] is Saccharomyces cerevisiae. As to the kind of experiment: Antimicrobial activity assay (MIC80, OD600), S. cerevisiae. The following applies: LB broth, 128-4 μg/mL, 37 °C, 24 h. As for the experimental part: as §1
Series [3] has as its system Saccharomyces cerevisiae. The series is described as follows: Growth time-OD600 curve at MIC80, S. cerevisiae. To be noted: compound at its MIC80 concentration, OD600 at 8-32 h, 37 °C, n = 3. The method, then:
(§2) The strain was grown to OD600 = 0.3 in LB broth medium and diluted 100-fold. Aliquots (200 μL) of the diluted suspensions were placed into 96-well microtiter plates, and compounds 1 and 4 at the concentration of MIC80 were cultured in the plate at 37 °C. The absorbance value was measured at OD600 at 8 h, 12 h, 16 h, 20 h, 24 h, and 32 h.

The test system of series [4] is Staphylococcus aureus. The series is described as follows: Growth time-OD600 curve at MIC80, S. aureus. The following applies: compound at its MIC80 concentration, OD600 at 8-32 h, 37 °C, n = 3. The method, then:
as §2

The subject of series [5] is A549 human lung adenocarcinoma cell line. The series is described as follows: MTT cytotoxicity assay, A549. To be noted: A549 cells, 72 h treatment, absorbance 562 nm (reference 630 nm), read-out: IC50 Values, cytotoxicity against A549. The method, then: (§3) The cytotoxicity of the compound against A549 and NCI-1944 lines was determined by using 3-(4,5-dimethyl-2-thiazolyl)-2,5-diphenyl-2-H-tetrazolium bromide (MTT). The cells were maintained in DMEM containing 10% (v/v) fetal bovine serum (FBS) and 0.4% (v/v) penicillin−streptomycin solution (10,000 units/mL penicillin and 10,000 μg/mL streptomycin, 100X) at 37 °C under 5% CO2. After 24 h of adherent cell growth, different concentrations of the compounds, positive control adriamycin (ADM), and blank control (methanol) were added to 96-well plates. After 72 h, 20 μL of MTT solution was added. The absorbance value (detection wavelength is 562 nm and reference wavelength is 630 nm) was measured on the microplate reader, and the IC50 value of each compound was calculated.
For orientation: Tetrazolium assays rely on reduction of a dye to a coloured formazan, in cell work by metabolically active cells.

Series [6] relates to NCI-H1944 human lung adenocarcinoma cell line. As to the kind of experiment: MTT cytotoxicity assay, NCI-H1944. The following applies: NCI-H1944 cells, 72 h treatment, absorbance 562 nm (reference 630 nm), read-out: IC50 Values, cytotoxicity against NCI-H1944. The method, then:
as §3

≈ marks a conversion by molar mass, not a printed value. Where two headings read alike, the source gives them in different places. Square brackets hold non-standard residues; d marks the D form. Peptide text beside a SMILES is read from it. Hica(2S) = CC(C)C[C@H](O)C(=O)O; dHica = CC(C)C[C@@H](O)C(=O)O; βAla = NCCC(=O)O Some results are limits rather than exact numbers.

Broadly, the IC50 is the point on the concentration scale where inhibition reaches its midpoint.

Turning to `CC[C@H](C)[C@@H]1NC(=O)[C@H](CC(C)C)NC(=O)[C@H](CC(C)C)NC(=O)CCNC(=O)[C@@H](CC(C)C)OC1=O` [Compound 2, avenamide B] (cyclo([dHica][βAla]LLI)), in the series on Staphylococcus aureus [1], the “antimicrobial activity against S. aureus (in words)” value is on record as “did not display strong antimicrobial activity”. Also, the “antimicrobial activity against S. cerevisiae (in words)” value with Saccharomyces cerevisiae [2] is “did not display strong antimicrobial activity”.
For `CC(C)C[C@@H]1OC(=O)[C@H](Cc2ccccc2)NC(=O)[C@H](Cc2ccccc2)NC(=O)[C@H](Cc2ccccc2)NC(=O)[C@H](Cc2ccc(O)cc2)NC1=O` [Compound 1, avenamide A] (cyclo([Hica(2S)]YFFF)), the “growth time curve of S. cerevisiae (in words)” value in the series with Saccharomyces cerevisiae [3] is “exhibited antimicrobial activity against both strains during the measuring time”. Besides, in the series with Staphylococcus aureus [1], the “MIC80 against S. aureus” value was found to be 20.25 µg/mL (≈ 28.2 µM). In addition, the “growth time curve of S. aureus (in words)” value with Staphylococcus aureus [4] was “exhibited antimicrobial activity against both strains during the measuring time”.
In the case of `COc1cccc2c1C(=O)c1c(O)c3c(c(O)c1C2=O)C[C@@](O)(C(=O)CO)C[C@@H]3O[C@H]1C[C@H](N)[C@H](O)[C@H](C)O1` [adriamycin, reference compound], the IC50 turned out to be 4.26 ± 0.17 µM in series [5] (Homo sapiens) and 4.35 ± 0.27 µM in series [6] (Homo sapiens).
On to `CC(C)[C@H]1C(=O)O[C@H](C(C)C)C(=O)N(C)[C@@H](C(C)C)C(=O)O[C@H](C(C)C)C(=O)N(C)[C@@H](C(C)C)C(=O)O[C@H](C(C)C)C(=O)N1C` [Compound 3, enniatin B], for which, in the series on Saccharomyces cerevisiae [3], the “growth time curve of S. cerevisiae (in words)” value is reported as “exhibited antimicrobial activity against both strains during the measuring time”. Moreover, the “MIC80 against S. aureus” value in the series with Staphylococcus aureus [1] is 11.08 µg/mL (≈ 17.3 µM). Further, the “MIC80 against S. cerevisiae” value against Saccharomyces cerevisiae [2] (96-well plate) was 16.92 µg/mL (≈ 26.4 µM). Besides, the “growth time curve of S. aureus (in words)” value with Staphylococcus aureus [4] is “exhibited antimicrobial activity against both strains during the measuring time”.
`CC[C@H](C)[C@@H]1NC(=O)[C@H](CC(C)C)NC(=O)[C@H](CC(C)C)NC(=O)[C@H](CC(C)C)NC(=O)[C@H](CC(C)C)NC1=O` [Compound 6, cyclo-(L-Ile-L-Leu-L-Leu-L-Leu-L-Leu)] (cyclo(ILLLL)): the IC50 in series [5] and in series [6] was below 50 µM each time.
For `CC[C@H](C)[C@H]1OC(=O)[C@H](C(C)C)N(C)C(=O)[C@@H](C(C)C)OC(=O)[C@H](C(C)C)N(C)C(=O)[C@@H](C(C)C)OC(=O)[C@H](C(C)C)N(C)C1=O` [Compound 4, enniatin H], the “antimicrobial activity against S. aureus (in words)” value with Staphylococcus aureus [1] was “did not display strong antimicrobial activity”. Besides, the “antimicrobial activity against S. cerevisiae (in words)” value with Saccharomyces cerevisiae [2] is listed as “did not display strong antimicrobial activity”.
On to `CC(C)C[C@@H]1NC(=O)[C@H](CC(C)C)NC(=O)[C@H](C(C)C)NC(=O)[C@H](CC(C)C)NC(=O)[C@@H](CC(C)C)NC1=O` [Compound 5, cyclo-(L-Leu-L-Leu-D-Leu-L-Leu-L-Val)] (cyclo(LL[dL]LV)), for which the IC50 in series [5] and in series [6] was below 50 µM each time.
